Test results taken from BindingDB's records for doi:10.1124/jpet.102.047092 (Case Western Reserve University, 2003).

What was measured:
[1] = molecular target: T1, 5-hydroxytryptamine receptor 1A (Homo sapiens, UniProt P08908)
T1 sequence (P08908 whole entry): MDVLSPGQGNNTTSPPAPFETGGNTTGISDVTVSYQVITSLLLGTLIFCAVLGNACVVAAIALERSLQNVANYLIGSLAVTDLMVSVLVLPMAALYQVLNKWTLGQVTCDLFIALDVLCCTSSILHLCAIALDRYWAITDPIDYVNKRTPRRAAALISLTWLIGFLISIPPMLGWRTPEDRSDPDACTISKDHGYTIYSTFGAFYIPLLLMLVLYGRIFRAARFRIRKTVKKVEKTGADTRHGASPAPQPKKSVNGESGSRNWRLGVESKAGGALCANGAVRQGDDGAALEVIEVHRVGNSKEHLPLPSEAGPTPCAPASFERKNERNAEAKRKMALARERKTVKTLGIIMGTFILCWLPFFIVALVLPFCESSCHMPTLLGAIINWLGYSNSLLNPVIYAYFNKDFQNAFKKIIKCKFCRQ

[2] = molecular target: Sodium-dependent dopamine transporter (Homo sapiens, UniProt Q01959)
[3] = molecular target: T2, 5-hydroxytryptamine receptor 3A (Homo sapiens, UniProt P46098)
T2 sequence (P46098 whole entry): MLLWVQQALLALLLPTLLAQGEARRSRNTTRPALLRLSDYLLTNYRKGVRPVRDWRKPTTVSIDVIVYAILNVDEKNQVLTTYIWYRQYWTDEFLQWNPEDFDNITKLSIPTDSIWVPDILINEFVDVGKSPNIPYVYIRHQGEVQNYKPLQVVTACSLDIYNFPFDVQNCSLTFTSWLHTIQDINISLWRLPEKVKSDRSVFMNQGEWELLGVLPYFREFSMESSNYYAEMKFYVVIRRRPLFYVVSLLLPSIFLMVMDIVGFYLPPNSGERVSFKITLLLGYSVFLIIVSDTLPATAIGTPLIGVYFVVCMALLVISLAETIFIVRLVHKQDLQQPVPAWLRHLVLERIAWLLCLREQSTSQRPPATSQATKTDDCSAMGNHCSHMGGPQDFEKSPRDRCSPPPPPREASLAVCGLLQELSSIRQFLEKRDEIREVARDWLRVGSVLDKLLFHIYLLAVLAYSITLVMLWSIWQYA

D(1A) dopamine receptor = D(1A) dopamine receptor (Homo sapiens, UniProt P21728)
[4] = molecular target: T3, 5-hydroxytryptamine receptor 2C (Rattus norvegicus, UniProt P08909)
T3 sequence (P08909 whole entry): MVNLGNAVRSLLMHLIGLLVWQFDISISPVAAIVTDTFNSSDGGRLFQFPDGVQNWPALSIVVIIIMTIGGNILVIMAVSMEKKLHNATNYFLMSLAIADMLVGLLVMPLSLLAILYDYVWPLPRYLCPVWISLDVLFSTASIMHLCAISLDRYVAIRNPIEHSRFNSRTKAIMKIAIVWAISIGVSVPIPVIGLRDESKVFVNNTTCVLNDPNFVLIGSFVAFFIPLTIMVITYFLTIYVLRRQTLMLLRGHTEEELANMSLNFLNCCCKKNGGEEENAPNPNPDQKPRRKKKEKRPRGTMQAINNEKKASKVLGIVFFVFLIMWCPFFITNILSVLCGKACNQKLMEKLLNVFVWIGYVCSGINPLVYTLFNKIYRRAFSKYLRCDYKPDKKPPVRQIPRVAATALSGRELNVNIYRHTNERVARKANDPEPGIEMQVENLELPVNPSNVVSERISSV

[5] = molecular target: T4, Alpha-2C adrenergic receptor (Homo sapiens, UniProt P18825)
T4 sequence (P18825 whole entry): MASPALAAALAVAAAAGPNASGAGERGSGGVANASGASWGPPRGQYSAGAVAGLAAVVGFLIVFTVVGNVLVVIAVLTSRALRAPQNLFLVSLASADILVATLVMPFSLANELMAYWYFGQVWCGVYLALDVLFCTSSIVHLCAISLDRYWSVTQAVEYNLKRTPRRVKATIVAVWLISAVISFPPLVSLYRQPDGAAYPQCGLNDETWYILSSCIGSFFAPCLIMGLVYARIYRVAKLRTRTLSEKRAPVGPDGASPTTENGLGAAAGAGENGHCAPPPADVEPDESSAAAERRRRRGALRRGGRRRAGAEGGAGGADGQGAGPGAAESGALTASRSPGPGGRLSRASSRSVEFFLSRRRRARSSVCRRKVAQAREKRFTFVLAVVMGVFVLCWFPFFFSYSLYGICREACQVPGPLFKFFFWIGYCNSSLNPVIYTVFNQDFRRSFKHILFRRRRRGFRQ

[6] = molecular target: T5, Muscarinic acetylcholine receptor M2 (Homo sapiens, UniProt P08172)
T5 sequence (P08172 whole entry): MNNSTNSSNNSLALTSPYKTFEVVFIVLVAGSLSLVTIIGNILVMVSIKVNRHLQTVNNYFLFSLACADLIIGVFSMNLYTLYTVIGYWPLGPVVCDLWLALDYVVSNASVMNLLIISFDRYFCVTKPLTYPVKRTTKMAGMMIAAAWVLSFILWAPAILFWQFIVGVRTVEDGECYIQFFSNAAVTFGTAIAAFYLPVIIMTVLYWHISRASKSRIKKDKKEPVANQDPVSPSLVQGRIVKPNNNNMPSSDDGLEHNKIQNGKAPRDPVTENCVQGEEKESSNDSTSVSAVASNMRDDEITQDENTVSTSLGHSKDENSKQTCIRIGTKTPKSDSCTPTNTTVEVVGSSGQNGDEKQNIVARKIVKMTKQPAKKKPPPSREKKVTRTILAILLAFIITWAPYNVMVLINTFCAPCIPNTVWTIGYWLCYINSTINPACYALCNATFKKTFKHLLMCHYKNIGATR

D(4) dopamine receptor = molecular target: T6, D(4) dopamine receptor (Rattus norvegicus, UniProt P30729)
T6 sequence (P30729 whole entry): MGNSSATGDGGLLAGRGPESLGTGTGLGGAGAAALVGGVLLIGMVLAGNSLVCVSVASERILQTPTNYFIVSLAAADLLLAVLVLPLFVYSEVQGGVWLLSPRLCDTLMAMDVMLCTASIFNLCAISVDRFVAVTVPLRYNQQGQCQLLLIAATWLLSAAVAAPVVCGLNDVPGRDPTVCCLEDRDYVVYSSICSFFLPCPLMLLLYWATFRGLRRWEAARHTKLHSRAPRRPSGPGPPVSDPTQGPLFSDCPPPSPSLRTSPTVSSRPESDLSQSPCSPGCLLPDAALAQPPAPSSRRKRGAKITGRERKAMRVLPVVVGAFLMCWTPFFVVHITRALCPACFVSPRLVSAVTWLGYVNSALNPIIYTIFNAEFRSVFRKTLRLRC

Measured: Ki

Sequence of D(1A) dopamine receptor (P21728 whole entry): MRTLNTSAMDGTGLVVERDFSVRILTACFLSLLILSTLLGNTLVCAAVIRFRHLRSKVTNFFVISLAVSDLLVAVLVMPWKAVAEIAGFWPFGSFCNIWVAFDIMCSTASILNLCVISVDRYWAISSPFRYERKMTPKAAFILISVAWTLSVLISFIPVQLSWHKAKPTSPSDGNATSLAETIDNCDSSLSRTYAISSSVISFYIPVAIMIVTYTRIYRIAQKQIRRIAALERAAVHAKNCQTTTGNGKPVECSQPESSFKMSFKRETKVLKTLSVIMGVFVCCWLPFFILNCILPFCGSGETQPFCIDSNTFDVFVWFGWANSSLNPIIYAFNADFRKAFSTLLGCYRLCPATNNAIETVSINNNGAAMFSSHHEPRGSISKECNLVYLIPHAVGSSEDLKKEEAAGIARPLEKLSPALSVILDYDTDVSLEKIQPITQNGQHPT
Sequence of Sodium-dependent dopamine transporter (Q01959 whole entry): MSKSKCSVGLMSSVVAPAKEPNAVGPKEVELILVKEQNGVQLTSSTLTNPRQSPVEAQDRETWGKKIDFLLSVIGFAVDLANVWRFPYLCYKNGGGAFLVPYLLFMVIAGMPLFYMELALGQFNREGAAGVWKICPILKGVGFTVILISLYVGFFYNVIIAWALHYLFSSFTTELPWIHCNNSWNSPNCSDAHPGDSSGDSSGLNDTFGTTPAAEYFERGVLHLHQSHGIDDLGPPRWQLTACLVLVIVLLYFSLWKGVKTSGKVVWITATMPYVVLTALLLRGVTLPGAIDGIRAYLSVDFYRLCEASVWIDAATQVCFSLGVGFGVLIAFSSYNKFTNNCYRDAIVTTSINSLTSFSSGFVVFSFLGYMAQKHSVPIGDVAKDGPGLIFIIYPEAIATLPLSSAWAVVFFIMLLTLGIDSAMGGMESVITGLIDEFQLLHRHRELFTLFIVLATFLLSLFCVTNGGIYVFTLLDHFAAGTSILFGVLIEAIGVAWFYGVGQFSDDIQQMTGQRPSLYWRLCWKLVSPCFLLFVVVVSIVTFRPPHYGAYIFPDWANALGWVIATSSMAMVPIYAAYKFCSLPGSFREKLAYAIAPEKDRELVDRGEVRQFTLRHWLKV

N[C@@H](CCS(=O)(=O)O)C(=O)O (racemic)
> 10 µM: all assays above

N[C@@H]1CCSC1=O [D-homocysteine thiolactone]
> 10 µM: all assays above

N[C@H](CCS(=O)(=O)O)C(=O)O [D-homocysteic acid]
> 10 µM: all assays above

NC(CS(=O)O)C(=O)O (stereo unspecified) [CAS_109]
> 10 µM: all assays above

N[C@H]1CCSC1=O [NSC_134505]
> 10 µM: all assays above

CSCC[C@@H](N)C(=O)O [CAS_6137]
> 10 µM: all assays above

N[C@H](CS(=O)(=O)O)C(=O)O [L-cysteic acid]
> 10 µM: all assays above

N[C@@H](CS)C(=O)O [CAS_5862]
> 10 µM: all assays above

N[C@@H](CCS(=O)O)C(=O)O [L-homocysteine sulfinic acid]
> 10 µM: all assays above

NC(CSSCC(N)C(=O)O)C(=O)O (stereo unspecified) [CAS_595]
> 10 µM: all assays above

N[C@H](CCS(=O)O)C(=O)O [D-homocysteine sulfinic acid]
> 10 µM: all assays above

N[C@@H](CCS)C(=O)O (racemic) [CAS_778]
> 10 µM: all assays above
